Data published in publication PMC6095626, “Screening of the Pathogen Box for inhibitors with dual efficacy against Giardia lamblia and Cryptosporidium parvum” (PLoS Neglected Tropical Diseases, 2018).

Tests used:
[1] = test system: G. lamblia trophozoites (luciferase expressing, WBC6); experiment: microbe, parasite or virus in culture; type: cell-based, Giardia lamblia; details: for Giardia (16 uM) Mean % inhibition: initial Pathogen Box screen, single concentration 16 µM, inhibition compared to DMSO wells
Description: Trophozoites were harvested by chilling cultures on ice for 30 minutes and plated by adding 150 μL per well at a concentration of 250,000 cells/mL. Metronidazole (Sigma, St. Louis, MO) was used as a control and was serially diluted 1:2 from 40 μM to 0.04 μM and 150 μL was added to the 150 μL of the G. lamblia trophozoites. Plates were covered in plastic low-evaporation lids, sealed in individual anaerobic BD GasPak Bio-Bags (Becton Dickinson, San Jose, CA) and incubated at 37 °C for 24 hours. […] A duplicate plate was concurrently set up and assayed using a MOXI Z Mini Automated Cell Counter Kit (Orflo, Ketchum, ID). Results obtained from the bioluminescence assay and the MOXI counter data were compared to evaluate their correlation to each another. Albendazole (Sigma, St. Louis, MO), an alternative giardiasis therapeutic, was assayed in concentrations from 4 μM to 0.004 μM with only the luciferase expressing G. lamblia cells. […]

[2] = test system: C. parvum (UGA1 Nluc expressing strain in HCT-8 cells); experiment: microbe, parasite or virus in culture; type: cell-based, Cryptosporidium parvum; details: initial Pathogen Box screen, single concentration 10 µM, inhibition compared to DMSO wells
Description: Growth inhibition and EC50 determination assays were performed using UGA1 Nluc expressing C. parvum strain in HCT-8 cells (ATCC^©, Manassas, VA) as previously described. HCT-8 cells were inoculated onto 96-well plates and allowed to grow for 48 hours to 90–100% confluence and then treated with single concentration (10 μM) or serially diluted compounds prior to oocyst infection. C. parvum oocysts were incubated for 10 minutes in 10% bleach at room temperature and then washed with DPBS. […] The cell monolayers were lysed for 1 hour before adding Nano-Glo® luciferase reagent (Promega, Madison, WI), and measuring relative luminescence units (RLU) in an EnVision Plate Reader (Perkin Elmer, Waltham, MA). Several parameters, including reproducibility and reliability, were previously evaluated to optimize this assay for low and high-throughput (HTP) screening of small molecule compounds against C. parvum. EC50 values were calculated using Prism 7 software (GraphPad Software, San Diego, CA).
C. parvum screening against the Pathogen Box compounds was performed as previously described starting at a concentration of 10 μM [23].

| Structure (SMILES) | Giardia (16 uM) Mean % inhibition [1] | Crypto (10 uM) Mean % inhibition [2] | G. lamblia inhibition of parasite growth in the initial screen ([1]; 16 μM, 24 hours) | G. lamblia EC50 ([1]; luciferase expressing G. lamblia trophozoites, 24 hours, D-luciferin bioluminescence read-out) |
| --- | --- | --- | --- | --- |
| Cc1cc(C2=NOC(c3cc(Cl)c(F)c(Cl)c3)(C(F)(F)F)C2)ccc1C(=O)NCc1ccc2c(c1)C(C)(C)OB2O (stereo not drawn) [MMV687776] | 27% | 83% | – | – |
| O=C1O[C@@H](CO)CN1c1cc(F)c(C2=CCN(Cc3ccccc3)CC2)c(F)c1 [MMV687729] | 25% | 74% | – | – |
| COc1ccc(OC(C)C(=O)Nc2ccc(Cl)cc2C)cc1 (stereo not drawn) [MMV202458] | 11% | X* (Mean or standard deviation are negative but not significantly different from the control to be a growth promoter) | – | – |
| Clc1ccc(Cl)c(CO[C@H]2CCCC[C@@H]2n2ccnc2)c1 [MMV676048] | 37% | 49% | – | – |
| CC(=O)N1CCc2cc3nc(C)cc(C)c3cc21 [MMV054312] | 45% | 59% | – | – |
| CCOC(=O)c1c(NC(=O)c2c(F)c(F)c(F)c(F)c2F)sc(C(N)=O)c1C [MMV153413] | 97% | X* (Mean or standard deviation are negative but not significantly different from the control to be a growth promoter) | ≥ 95% | not potent |
| Cc1ccc(-c2cc(C(=O)Nc3cccnc3)c3cc(Br)ccc3n2)cc1 [MMV016838] | 63% | 42% | – | – |
| COc1ccc(-c2nn(C(C)C)c3ncnc(N)c23)cc1OC [MMV675993] | X* (Mean or standard deviation are negative but not significantly different from the control to be a growth promoter) | 89% | – | – |
| CCN(CC)CCCN1CCN(C(=O)c2cccc(-c3noc(C(F)(F)F)n3)c2)CC1 [MMV022236] | 8% | 38% | – | – |
| CCC(Sc1nc2ccccc2o1)C(=O)Nc1nnc(C)s1 (stereo not drawn) [MMV611037] | 46% | X* (Mean or standard deviation are negative but not significantly different from the control to be a growth promoter) | – | – |
| NS(=O)(=O)c1cccc(-c2ccc3ncc(N4CCOCC4)nc3c2)c1 [MMV023860] | 27% | 89% | – | – |
| Cc1ccc2oc(-c3cc(NC(=O)Cc4ccccc4)ccc3Cl)nc2c1 [MMV676509] | 27% | 56% | – | – |
| Nc1ncc(Br)cc1-c1nc2cc(Cl)cnc2[nH]1 [MMV676358] | 90% | X* (Mean or standard deviation are negative but not significantly different from the control to be a growth promoter) | – | – |
| O=C(CCC1CCCCC1)Nc1cccc(-c2nnc(-c3ccco3)o2)c1 [MMV676589] | 40% | 42% | – | – |
| Cc1cc(Nc2ccncc2)n2nc(C)c(-c3ccccc3Cl)c2n1 [MMV016136] | X* (Mean or standard deviation are negative but not significantly different from the control to be a growth promoter) | 46% | – | – |
| Cc1cc(=O)[nH]c(-n2nc(C)cc2C)n1 [MMV393995] | X* (Mean or standard deviation are negative but not significantly different from the control to be a growth promoter) | 86% | – | – |
| Nc1ncnc2c1c(Cc1cccc3ccccc13)nn2CC1CCNCC1 [MMV676182] | 0.413% | 59% | – | – |
| Cc1nn(Cc2ccccc2)c(Cl)c1C(=O)NC1CCCCCC1 [MMV063404] | 55% | 75% | – | – |
| CN1CCC(NCc2cccc(-c3ccc(S(=O)(=O)NCc4ccccc4)cc3)c2)CC1 [MMV022029] | 89% | X* (Mean or standard deviation are negative but not significantly different from the control to be a growth promoter) | – | – |
| O=C(C(Cc1c[nH]c2ccccc12)NS(=O)(=O)c1ccc(Cl)cc1)N1CCCCC1 (stereo not drawn) [MMV085210] | X* (Mean or standard deviation are negative but not significantly different from the control to be a growth promoter) | X* (Mean or standard deviation are negative but not significantly different from the control to be a growth promoter) | – | – |
| CCc1ccccc1-n1c(C)cn2c3c(=O)n(C(C(=O)OC)C(C)C)c(=O)n(C)c3nc12 (stereo not drawn) [MMV688550] | X* (Mean or standard deviation are negative but not significantly different from the control to be a growth promoter) | 58% | – | – |

| Structure (SMILES) | Giardia (16 uM) Mean % inhibition [1] | Crypto (10 uM) Mean % inhibition [2] | G. lamblia inhibition of parasite growth in the initial screen ([1]; 16 μM, 24 hours) | G. lamblia EC50 ([1]; luciferase expressing G. lamblia trophozoites, 24 hours, D-luciferin bioluminescence read-out) |
| --- | --- | --- | --- | --- |
| NC(=O)c1cc(Br)ccc1OCCOc1ccccc1 [MMV687243] | 66% | 77% | – | – |
| N#CCN(CCCCN1CCN(c2ccc(F)cc2)CC1)C(=O)OCc1ccccc1 [MMV675997] | 29% | 56% | – | – |
| CC(C)(C)n1nc(Cc2ccc(F)c(Cl)c2)c2c(N)ncnc21 [MMV688852] | 27% | 80% | – | – |
| COc1ccc(S(=O)(=O)Nc2ccc(CN3CCN(C(=O)c4cccc(C#N)c4)CC3)cc2)cc1 [MMV689029] | 54% | 54% | – | – |
| Cc1cc(OCC(=O)NCc2ccccc2)c2cc(Br)ccc2n1 [MMV687747] | 32% | 54% | – | – |
| COc1ccc(-c2cncc3ccc(C(=O)NCCCn4ccnc4)nc23)cc1 [MMV020670] | 19% | 42% | – | – |
| O=C(Nc1n[nH]c(=S)s1)c1cc(Br)ccc1Cl [MMV676492] | X* (Mean or standard deviation are negative but not significantly different from the control to be a growth promoter) | 57% | – | – |
| O=C(Nc1ccc2c(c1)B(O)OC2)c1ccccc1C(F)(F)F [MMV652003] | 14% | 94% | – | – |
| CNC(=O)c1cc(S(=O)(=O)N2CCN(c3ccccn3)CC2)cs1 [MMV020136] | X* (Mean or standard deviation are negative but not significantly different from the control to be a growth promoter) | X* (Mean or standard deviation are negative but not significantly different from the control to be a growth promoter) | – | – |
| c1cncc(NCc2ccc(-c3cc4ccncc4cc3OC3CCNCC3)s2)c1 [MMV023969] | 11% | 25% | – | – |
| Cc1cc(NCCc2ccccc2)nc(NC(=N)Nc2ccc(Cl)cc2)n1 [MMV021660] | 90% | X* (Mean or standard deviation are negative but not significantly different from the control to be a growth promoter) | – | – |
| Cc1cnc(N2CCN[C@@H](Cc3ccccc3)C2)nc1Oc1ccc(-n2ccnc2)cc1 [MMV687765] | 49% | 39% | – | – |
| NS(=O)(=O)c1cncc(-c2ccc3nccc(-c4cn[nH]c4)c3n2)c1 [MMV024101] | 14% | X* (Mean or standard deviation are negative but not significantly different from the control to be a growth promoter) | – | – |
| Cc1nc(-c2ccccn2)nc(N(C)CCc2ccccc2)c1Cl [MMV658988] | X* (Mean or standard deviation are negative but not significantly different from the control to be a growth promoter) | 33% | – | – |
| CC(=O)NCC1CN(c2ccc(-c3ccc(CO)cc3)c(F)c2)C(=O)O1 (stereo not drawn) [MMV688508] | X* (Mean or standard deviation are negative but not significantly different from the control to be a growth promoter) | X* (Mean or standard deviation are negative but not significantly different from the control to be a growth promoter) | – | – |
| Cc1cccc(-c2nc(Nc3ccncn3)c3sccc3n2)n1 [MMV688122] | 33% | 93% | – | – |
| CCCn1c(NC(=O)c2ccc3ccccc3n2)nc2ccccc21 [MMV1030799] | 13% | 81% | – | – |
| c1ccc(Oc2ccc(-c3cncc(-c4ccc5[nH]ccc5c4)n3)cc2)cc1 [MMV688178] | X* (Mean or standard deviation are negative but not significantly different from the control to be a growth promoter) | 59% | – | – |
| Clc1ccc(CN2CCN(C3=NCCN3)CC2)cc1Cl [MMV689060] | X* (Mean or standard deviation are negative but not significantly different from the control to be a growth promoter) | 50% | – | – |
| NCCC[C@@](N)(C(=O)O)C(F)F [MMV001625] | 16% | 36% | – | – |
